# Experimental data: patent US20040224981A1, “Antibacterial methods and compositions” (priority 2003, published 2004)
# Read-outs that look alike come from different tables or passages of the source.
# What was measured:
# [1] = tested on: S. aureus; assay: MIC against S. aureus strains and clinical isolates (broth microdilution); type: cell-based, Staphylococcus aureus
# Protocol: were tested against a collection of clinical isolates of S. aureus including strains that were multi-resistant to mupirocin and to other agents such as gentamicin and oxacillin.
# The acetate and mupirocin salts of the MRS inhibitor compound 5 were tested against a collection of both low and high-level mupirocin resistant clinical isolates of S. aureus (Table 6).
# The bacterial strains were tested for susceptibility to mupirocin and MRSi compound 2 using the broth microdilution method in accordance with NCCLS guideline to determine their MICs.
# Briefly, the MIC and checkerboard titration assays were performed with strains in microtiter trays with cation-supplemented Mueller-Hinton broth (Difco). Inocula were prepared by suspending growth from blood agar plates in sterile saline to a density equivalent to that of a 0.5 McFarland standard and were diluted […] to produce a final inoculum of 5×10^5 CFU/ml. The trays were incubated aerobically overnight. Standard quality control strains were included with each run. Fractional inhibitory concentrations (FICs) were calculated as the MIC of drug A or B in combination/MIC of drug A or B alone, and the FIC index was obtained by adding the two FICs. FIC indices were interpreted as synergistic if the values were ≦0.5, additive or indifferent if the values were >0.5 to 4, and antagonistic if the values were >4.0.
# [2] = tested on: E. faecalis; assay: MIC against E. faecalis; type: cell-based
# Protocol: (§1) The MRS inhibitor 4 alone and in combination with mupirocin (mupirocin salt and 1:1 combination) were tested against a collection of Gram-positive pathogens.
# MRSi compound 5 alone and in combination with mupirocin was tested recent clinical isolates of E. faecalis (n=28) and E. faecium (n=23). Both the acetate salt and mupirocinate salts of MRSi compound 5 maintained potent activity against vancomycin-susceptible and—resistant enterococci (Tables 8, 9, and 10).
# [3] = tested on: S. pyogenes; assay: MIC against S. pyogenes; type: cell-based, Streptococcus pyogenes
# Protocol: as §1
# S. pyogenes is also a significant skin pathogen and 48 recent clinical isolates were tested for their susceptibility to MRSi compound 5 alone (acetate) and in combination (1:1) with mupirocin (mupirocinate).
# [4] = tested on: S. epidermidis; assay: MIC against S. epidermidis; type: cell-based
# Protocol: as §1
# (§2) The MRS inhibitor 8 was also prepared as a fusidate and mupirocinate salt and tested for antibacterial activity against Gram-positive bacteria (Table 3). […] MRSi compound 8 alone and the fusidate and mupirocin salts were active against mupirocin-resistant S. aureus and S. epidermidis and organisms such as E. faecalis that are not susceptible to mupirocin.
# (§3) The MRS inhibitor 5 acetate and mupirocin salts were tested against a collection of Gram-positive bacteria.
# [5] = tested on: S. hemolyticus; assay: MIC against S. hemolyticus; type: cell-based
# Protocol: as §1, §2, §3
# [6] = Table 3, S. aureus ATCC 43300 (ORSA)
# [7] = Table 3, S. aureus NRS107 (mupA)
# [8] = Table 3, E. faecalis ATCC 29212
# [9] = Table 3, S. pyogenes ATCC 19615
# [10] = Table 3, S. pyogenes MB143 (macrolide rest.)
structure (smiles),measurement,setting,value
"Cc1c(CNCCCNc2cc(=O)c3ccccc3[nH]2)sc(Br)c1Br [MRSI Cmpd 4 acetate, N-(4,5-Dibromo-3-methylthiophen-2-ylmethyl)-N′-(1H-quinolin-4-one)propane-1,3-diamine]",MIC,"[1]; Staphylococcus aureus, ATCC29213, Table 2, S. aureus ATCC 29213, read-out: MIC",0.25 µg/mL
same,MIC,"[1]; Staphylococcus aureus, ATCC43300, Table 2, S. aureus ATCC 43300 (ORSA), read-out: MIC",0.25 µg/mL
same,MIC,"[1]; Staphylococcus aureus, NRS107, Table 2, S. aureus NRS107 (mupA), read-out: MIC",0.03 µg/mL
same,MIC,"[1]; Staphylococcus aureus, Table 2, S. aureus Oxford, read-out: MIC",0.03 µg/mL
same,MIC,"[2]; Enterococcus faecalis, ATCC29212, Table 2, E. faecalis ATCC 29212, read-out: MIC",≤ 0.008 µg/mL
same,MIC,"[2]; Enterococcus faecalis, Table 2, E. faecalis 1, read-out: MIC",0.015 µg/mL
same,MIC,"[2]; Enterococcus faecalis, Table 2, E. faecalis 7, read-out: MIC",≤ 0.008 µg/mL
same,MIC,"[3]; Streptococcus pyogenes, ATCC19615, Table 2, S. pyogenes ATCC 19615, read-out: MIC",0.25 µg/mL
same,MIC,"[3]; Streptococcus pyogenes, Table 2, S. pyogenes MB143 (macrolide rest.), read-out: MIC",0.12 µg/mL
same,MIC,"[4]; Staphylococcus epidermidis, Table 2, S. epidermidis NRS6, read-out: MIC",0.5 µg/mL
same,MIC,"[4]; Staphylococcus epidermidis, Table 2, S. epidermidis NRS7, read-out: MIC",0.03 µg/mL
same,MIC,"[4]; Staphylococcus epidermidis, Table 2, S. epidermidis NRS8, read-out: MIC",0.25 µg/mL
same,MIC,"[5]; Table 2, S. hemolyticus NRS50, read-out: MIC",0.25 µg/mL
same,MIC,"[5]; Table 2, S. hemolyticus NRS116, read-out: MIC",0.5 µg/mL
"CC(=CC(=O)OCCCCCCCCC(=O)O)CC1OCC(CC2OC2C(C)C(C)O)C(O)C1O.Clc1cc(Cl)c2c(Cl)c(CNCCCNc3nc4cccnc4[nH]3)[nH]c2c1 (stereo not shown) [MRSi Cmpd 8 mupirocinate, N-(1H-IMIDAZO [4,5-B]PYRIDIN-2-YL)-N′-(3,4,6-TRICHLORO-1H—INDOL-2-YLMETHYL)-PROPANE-1,3-DIAMINE MUPIROCINATE]",MIC,"[1]; Table 3, S. aureus ATCC 29213",0.12 µg/mL
same,MIC,[1]; [6],0.12 µg/mL
same,MIC,[1]; [7],0.12 µg/mL
same,MIC,"[1]; Table 3, S. aureus Oxford",0.12 µg/mL
same,MIC,"[2]; Table 3, E. faecalis 1",0.06 µg/mL
same,MIC,"[2]; Table 3, E. faecalis 7",0.12 µg/mL
same,MIC,[2]; [8],0.12 µg/mL
same,MIC,[3]; [9],0.25 µg/mL
same,MIC,[3]; [10],0.12 µg/mL
same,MIC,"[4]; Table 3, S. epidermidis NRS6",0.5 µg/mL
same,MIC,"[4]; Table 3, S. epidermidis NRS7",0.12 µg/mL
same,MIC,"[4]; Table 3, S. epidermidis NRS8",0.25 µg/mL
same,MIC,"[5]; Table 3, S. hemolyticus NRS50",0.12 µg/mL
same,MIC,"[5]; Table 3, S. hemolyticus NRS116",0.25 µg/mL
"Clc1cc(Cl)c2c(Cl)c(CNCCCNc3nc4ncccc4[nH]3)[nH]c2c1 [MRSi Cmpd 8 acetate, N-(1H-imidazo[4,5-b]pyridin-2-yl)-N′-(3,4,6-trichloro-1H-indol-2-ylmethyl)—propane-1,3-diamine]",MIC,"[1]; Staphylococcus aureus, ATCC29213, Table 3, S. aureus ATCC 29213, read-out: MIC",0.06 µg/mL
same,MIC,"[1]; Staphylococcus aureus, ATCC43300, Table 3, S. aureus ATCC 43300 (ORSA), read-out: MIC",0.03 µg/mL
same,MIC,"[1]; Staphylococcus aureus, NRS107, Table 3, S. aureus NRS107 (mupA), read-out: MIC",0.03 µg/mL
same,MIC,"[1]; Staphylococcus aureus, Table 3, S. aureus Oxford, read-out: MIC",0.03 µg/mL
same,MIC,"[2]; Enterococcus faecalis, ATCC29212, Table 3, E. faecalis ATCC 29212, read-out: MIC",0.03 µg/mL
same,MIC,"[2]; Enterococcus faecalis, Table 3, E. faecalis 1, read-out: MIC",0.03 µg/mL
same,MIC,"[2]; Enterococcus faecalis, Table 3, E. faecalis 7, read-out: MIC",0.03 µg/mL
same,MIC,"[3]; Streptococcus pyogenes, ATCC19615, Table 3, S. pyogenes ATCC 19615, read-out: MIC",0.12 µg/mL
same,MIC,"[3]; Streptococcus pyogenes, Table 3, S. pyogenes MB143 (macrolide rest.), read-out: MIC",0.12 µg/mL
same,MIC,"[4]; Staphylococcus epidermidis, Table 3, S. epidermidis NRS6, read-out: MIC",0.12 µg/mL
same,MIC,"[4]; Staphylococcus epidermidis, Table 3, S. epidermidis NRS7, read-out: MIC",0.06 µg/mL
same,MIC,"[4]; Staphylococcus epidermidis, Table 3, S. epidermidis NRS8, read-out: MIC",0.12 µg/mL
same,MIC,"[5]; Table 3, S. hemolyticus NRS50, read-out: MIC",0.06 µg/mL
same,MIC,"[5]; Table 3, S. hemolyticus NRS116, read-out: MIC",0.12 µg/mL
"CC(=CC(=O)OCCCCCCCCC(=O)O)CC1OCC(CC2OC2C(C)C(C)O)C(O)C1O.Cc1c(CNCCCNc2cc(=O)c3ccccc3[nH]2)sc(Br)c1Br (stereo not shown) [MRSi Cmpd 4 mupirocinate, N-(4,5-DIBROMO-3-METHYLTHIOPHEN-2-YLMETHYL)-N′-(1H-QUINOLIN-4-ONE)PROPANE-1,3-DIAMINE MUPIROCINATE]",MIC,"[1]; Table 2, S. aureus ATCC 29213",0.5 µg/mL
same,MIC,"[1]; Table 2, S. aureus ATCC 43300 (ORSA)",0.5 µg/mL
same,MIC,"[1]; Table 2, S. aureus NRS107 (mupA)",0.25 µg/mL
same,MIC,"[1]; Table 2, S. aureus Oxford",0.25 µg/mL
same,MIC,"[2]; Table 2, E. faecalis 1",0.12 µg/mL
same,MIC,"[2]; Table 2, E. faecalis 7",0.12 µg/mL
same,MIC,"[2]; Table 2, E. faecalis ATCC 29212",0.06 µg/mL
same,MIC,"[3]; Table 2, S. pyogenes ATCC 19615",0.25 µg/mL
same,MIC,"[3]; Table 2, S. pyogenes MB143 (macrolide rest.)",0.25 µg/mL
same,MIC,"[4]; Table 2, S. epidermidis NRS6",1 µg/mL
same,MIC,"[4]; Table 2, S. epidermidis NRS7",0.25 µg/mL
same,MIC,"[4]; Table 2, S. epidermidis NRS8",1 µg/mL
same,MIC,"[5]; Table 2, S. hemolyticus NRS50",0.5 µg/mL
same,MIC,"[5]; Table 2, S. hemolyticus NRS116",0.5 µg/mL
"CC(=O)O[C@H]1C[C@@]2(C)[C@@H](C[C@@H](O)[C@H]3[C@@]4(C)CC[C@@H](O)[C@@H](C)[C@@H]4CC[C@@]32C)/C1=C(\CCC=C(C)C)C(=O)O.Clc1cc(Cl)c2c(Cl)c(CNCCCNc3nc4ncccc4[nH]3)[nH]c2c1 [MRSi Cmpd 8 fusidate, N-(1H-IMIDAZO[4,5-B] PYRIDIN-2-YL)-N′-(3,4,6-TRICHLORO-1H-INDOL-2-YLMETHYL)-PROPANE-1,3-DIAMINE FUSIDATE]",MIC,"[1]; Table 3, S. aureus ATCC 29213",0.12 µg/mL
same,MIC,[1]; [6],0.06 µg/mL
same,MIC,[1]; [7],0.06 µg/mL
same,MIC,"[1]; Table 3, S. aureus Oxford",0.06 µg/mL
same,MIC,"[2]; Table 3, E. faecalis 1",0.06 µg/mL
same,MIC,"[2]; Table 3, E. faecalis 7",0.12 µg/mL
same,MIC,[2]; [8],0.12 µg/mL
same,MIC,[3]; [9],0.5 µg/mL
same,MIC,[3]; [10],0.5 µg/mL
same,MIC,"[4]; Table 3, S. epidermidis NRS6",0.25 µg/mL
same,MIC,"[4]; Table 3, S. epidermidis NRS7",0.12 µg/mL
same,MIC,"[4]; Table 3, S. epidermidis NRS8",0.25 µg/mL
same,MIC,"[5]; Table 3, S. hemolyticus NRS50",0.12 µg/mL
same,MIC,"[5]; Table 3, S. hemolyticus NRS116",0.25 µg/mL
